Molecules are shown by their SMILES. Counter-ions that a name gives are not always drawn.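 96-well plates; 48 h exposure; 5 concentrations. Endpoints by linear interpolation between flanking doses. Not reached: highest tested concentration assigned. GI50 = concentration required for 50% inhibition of growth.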 Activity calls are given as the source filed them. Rule as the data show it: active = GI50 up to about 1.1 µM and inactive = higher.

Some test systems named below: 786-0; HCT-15; HL-60; HOP-92; HT-29; M14; MCF7; MDA-MB-231; MDA-MB-435; NCI-H226; NCI-H23; NCI-H522; NCI/ADR-RES; OVCAR-4; PC-3; SK-MEL-2; SN12C; SR; SW-620.
What all share (assay): growth of human tumour cells (NCI), 48 h

Consider `CC(=O)NC1C(OCc2ccccc2)OC(CO)C(O)C1OC(C)C(=O)NC(C(=O)NC(CCC(=O)NCCCCNc1c2ccccc2nc2cccc([N+](=O)[O-])c12)C(N)=O)C(C)C` (stereo not drawn), for which the GI50 was 1.81 µM (inactive) with 786-0; 3.21 µM in the assay on HCT-15; 1.65 µM (inactive) in the assay on HL-60; 1.28 µM (inactive) in the assay with HOP-92; 1.14 µM (inactive) in the assay with HT-29; 1.62 µM (inactive) with M14. The GI50 in the assay with MCF7 was 0.499 µM (active); in the assay with MDA-MB-231, 2.71 µM (inactive); in the assay with MDA-MB-435 it was 1.45 µM (inactive); with NCI-H226 it was 3.27 µM (inactive); in the assay on NCI-H23, 1.79 µM (inactive); in the assay on NCI-H522 it was 0.186 µM (active). In addition, the GI50 in the assay on NCI/ADR-RES was 49.2 µM (inactive); in the assay on OVCAR-4 it was 1.24 µM (inactive); in the assay with PC-3 it was 2.67 µM (inactive); in the assay with SK-MEL-2 it was 2.52 µM (inactive); in the assay with SN12C, 1.71 µM (inactive); in the assay with SR, 0.178 µM (active). Besides, the GI50 in the assay on SW-620 is 0.993 µM (active).

With `CC(=O)O/C(=C1\C[C@H]2[C@@H]3CC=C4C[C@@H](OC(C)=O)CC[C@]4(C)[C@H]3CC[C@]2(C)C1=O)C(F)(F)F`, the GI50 in the assay with 786-0 is 8.53 µM (inactive); in the assay with HCT-15, 4.03 µM; in the assay with HL-60, 3.51 µM (inactive); with HOP-92 it was 8.24 µM (inactive); with HT-29, 10.1 µM (inactive); in the assay with M14, 7.19 µM (inactive). Also, the GI50 in the assay on MCF7 was 5.86 µM (inactive); with MDA-MB-231, 10.4 µM (inactive); in the assay with MDA-MB-435 it was 7.85 µM (inactive); in the assay on NCI-H226 it was 21 µM (inactive); in the assay with NCI-H23, 6.85 µM (inactive); in the assay with NCI-H522 it was 3.18 µM (inactive). Further, the GI50 was 7.16 µM (inactive) with NCI/ADR-RES; 11.4 µM (inactive) in the assay with OVCAR-4; 13.5 µM (inactive) with PC-3; 7.62 µM (inactive) with SK-MEL-2; 8.97 µM (inactive) in the assay with SN12C; 2.88 µM (inactive) in the assay on SR. Also, the GI50 in the assay with SW-620 was 5.61 µM (inactive).

On to `COc1ccc2cc(NC(=O)N/N=C\c3ccc([N+](=O)[O-])cc3)ccc2c1`, for which the GI50 in the assay with 786-0 was 30.5 µM (inactive); in the assay on HCT-15, 48 µM; in the assay on HL-60, 45 µM (inactive); in the assay on HOP-92 it was 39.5 µM (inactive); in the assay on HT-29, 33.5 µM (inactive); with M14, 30.8 µM (inactive). The GI50 was 29.9 µM (inactive) in the assay with MCF7; 37.4 µM (inactive) with MDA-MB-231; 69 µM (inactive) with MDA-MB-435; 18.7 µM (inactive) in the assay with NCI-H226; 22.9 µM (inactive) in the assay with NCI-H23; 16 µM (inactive) in the assay on NCI-H522. For the same compound, the GI50 was 23.8 µM (inactive) in the assay on NCI/ADR-RES; 1.91 µM (inactive) in the assay with OVCAR-4; 27.6 µM (inactive) in the assay on PC-3; 60.3 µM (inactive) with SK-MEL-2; 86.3 µM (inactive) with SN12C; > 100 µM (inactive) with SR. In addition, the GI50 in the assay with SW-620 is > 100 µM (inactive).

Regarding `C/C(=C\CBr)CCC(Br)C(C)(C)Br` (stereo not drawn), the GI50 with 786-0 was > 100 µM (inactive); with HCT-15, above 100 µM; with HL-60, > 100 µM (inactive); in the assay on HOP-92 it was > 100 µM (inactive); in the assay with HT-29, > 100 µM (inactive); with M14 it was > 100 µM (inactive). Further, the GI50 with MCF7, in the assay on MDA-MB-231, with MDA-MB-435, in the assay with NCI-H226, in the assay on NCI-H23 and in the assay with NCI-H522 was > 100 µM (inactive) in each case. The GI50 with NCI/ADR-RES, in the assay with OVCAR-4, in the assay with PC-3, with SK-MEL-2, in the assay on SN12C and with SR was > 100 µM (inactive) each time. In the assay on SW-620, the GI50 was > 100 µM (inactive).

Take `COc1ccc(Cc2nccc3cc(OC)c(OC)cc23)cc1OC` [PAPAVERINE HYDROCHLORIDE]: the GI50 in the assay on 786-0 was > 100 µM (inactive); in the assay on HCT-15, 87.3 µM; in the assay on HL-60, 45 µM (inactive); in the assay with HOP-92, 36.5 µM (inactive); in the assay on HT-29, 41.3 µM (inactive); in the assay with M14 it was > 100 µM (inactive). Moreover, the GI50 is > 100 µM (inactive) with MCF7; 47.2 µM (inactive) with MDA-MB-231; > 100 µM (inactive) in the assay on MDA-MB-435; 43.5 µM (inactive) in the assay on NCI-H226; 19.8 µM (inactive) in the assay on NCI-H23; > 100 µM (inactive) in the assay with NCI-H522. Besides, the GI50 with NCI/ADR-RES is 26.7 µM (inactive); in the assay on OVCAR-4, > 100 µM (inactive); with PC-3 it was 74.3 µM (inactive); in the assay with SK-MEL-2, > 100 µM (inactive); in the assay with SN12C it was > 100 µM (inactive); in the assay with SR, 19.2 µM (inactive). Besides, the GI50 with SW-620 is > 100 µM (inactive).

As to `CCC(CCC(C)C1CCC2C3CC=C4CC(OC5OC(CO)C(O)C(O)C5O)CCC4(C)C3CCC12C)C(C)C` (stereo not drawn), the GI50 in the assay with 786-0 was > 100 µM (inactive); in the assay on HCT-15 it was above 100 µM; with HL-60 it was > 100 µM (inactive); in the assay with HOP-92 it was > 100 µM (inactive); with HT-29 it was > 100 µM (inactive); in the assay on M14 it was > 100 µM (inactive). Besides, the GI50 with MCF7, in the assay on MDA-MB-231, with MDA-MB-435, in the assay on NCI-H226, with NCI-H23 and with NCI-H522 was > 100 µM (inactive) each time. Also, the GI50 is > 100 µM (inactive) in the assay on NCI/ADR-RES; > 100 µM (inactive) in the assay with OVCAR-4; > 100 µM (inactive) in the assay with PC-3; > 100 µM (inactive) in the assay on SK-MEL-2; > 100 µM (inactive) with SN12C; 26.4 µM (inactive) with SR. Also, the GI50 in the assay on SW-620 was > 100 µM (inactive).

As to `O=[N+]([O-])c1oc2ccc3ccccc3c2c1CCO`, the GI50 was 5.27 µM (inactive) in the assay on 786-0; 3.56 µM in the assay on HCT-15; 1.74 µM (inactive) in the assay with HL-60; 3.5 µM (inactive) with HOP-92; 2.94 µM (inactive) in the assay with HT-29; 1.94 µM (inactive) in the assay with M14. Further, the GI50 with MCF7 is 3.22 µM (inactive); in the assay with MDA-MB-231 it was 11.1 µM (inactive); in the assay with MDA-MB-435, 1.53 µM (inactive); with NCI-H226, 8.75 µM (inactive); in the assay with NCI-H23, 3.23 µM (inactive); in the assay on NCI-H522, 1.63 µM (inactive). In addition, the GI50 was 4.79 µM (inactive) in the assay with NCI/ADR-RES; 3.18 µM (inactive) in the assay with OVCAR-4; 13.1 µM (inactive) in the assay on PC-3; 1.85 µM (inactive) in the assay on SK-MEL-2; 6.21 µM (inactive) with SN12C; 0.114 µM (active) in the assay with SR. In addition, the GI50 with SW-620 is 4.08 µM (inactive).

These data come from ChEMBL document CHEMBL1201862, “PubChem BioAssay data set” (2004).
